This note sets out measurements from patent publication US6982348B2, “Aminoethanol derivatives” (Takeda Pharmaceutical Company Limited, priority 2001, dated 2006).

Counter-ions that a name gives are not always drawn.

On to `Cc1oc(C(C)C)c(C(=O)N[C@H](Cc2ccc(C(F)(F)F)cc2)[C@@H](O)c2ccc(F)cc2)c1-c1ccc(F)cc1` (racemic) [Example 73, 4-(4-fluorophenyl)-N-[(1RS,2SR)-2-(4-fluorophenyl)-2-hydroxy-1-[4-(trifluoromethyl)benzyl]ethyl]-5-methyl-2-(1-methylethyl)furan-3-carboxamide], for which the melting point was in the range of 134 to 136 °C.

`CC1=Cc2c(cccc2C(=O)N[C@H](Cc2cccc(OC(F)(F)C(F)F)c2)[C@@H](O)c2ccc(F)cc2)CCC1` (racemic) [Example 127, N-[(1RS,2SR)-2-(4-fluorophenyl)-2-hydroxy-1-[3-(1,1,2,2-tetrafluoroethoxy)benzyl]ethyl]-8-methyl-6,7-dihydro-5H-benzo[a]cycloheptene-1-carboxamide] gave a melting point of 149 to 150 °C.

`O=C(Cc1ccccc1)N[C@H](Cc1ccc(C(F)(F)F)cc1)[C@@H](O)c1ccc(F)cc1` (racemic) [Example 69, N-((1RS,2SR)-2-(4-fluorophenyl)-2-hydroxy-1-((4-(trifluoromethyl)phenyl)methyl)ethyl)-2-phenylacetamide] displayed a melting point of 173 to 174 °C.

With `O=C(N[C@H](Cc1ccc(F)cc1)[C@@H](O)c1ccc(C(F)(F)F)cc1)C1CCCCC1` (racemic) [Example 214, N-((1RS,2SR)-1-((4-fluorophenyl)methyl)-2-hydroxy-2-(4-(trifluoromethyl)phenyl)ethyl)cyclohexanecarboxamide], the melting point is 220 to 221 °C.

On to `O=C(N[C@H](Cc1ccc(C(F)(F)F)cc1)[C@@H](O)c1ccc(F)cc1)c1cccc(-c2ccccc2)c1` (racemic) [Example 74, N-((1RS,2SR)-2-(4-fluorophenyl)-2-hydroxy-1-((4-(trifluoromethyl)phenyl)methyl)ethyl)[1,1′-biphenyl]-3-carboxamide], for which the melting point fell in the range of 165 to 166 °C.

The compound `O=C(CCc1ccccc1)N[C@H](Cc1ccc(C(F)(F)F)cc1)[C@@H](O)c1ccc(F)cc1` (racemic) [Example 48, N-((1RS,2SR)-2-(4-fluorophenyl)-2-hydroxy-1-((4-(trifluoromethyl)phenyl)methyl)ethyl)-3-phenylpropanamide] had a melting point of 144 to 145 °C.

As for `CC(C)(C)c1cccc(C[C@@H](NC(=O)c2ccc(F)c3ccccc23)[C@@H](O)c2cccc(Cl)c2)c1` (racemic) [Example 369, N-[(1RS,2SR)-1-[3-(tert-butyl)benzyl]-2-(3-chlorophenyl)-2-hydroxyethyl]-4-fluoro-1-naphthamide], the melting point lay within 76 to 78 °C.

As for `CC(C)(C)COC(=O)N[C@H](Cc1ccc(C(F)(F)F)cc1)[C@@H](O)c1ccc(F)cc1` (racemic) [Example 116, neopentyl N-[(1RS,2SR)-2-(4-fluorophenyl)-2-hydroxy-1-[4-(trifluoromethyl)benzyl]ethyl]carbamate], the melting point lay within 112 to 113 °C.

Regarding `CC(C)(C)OC(=O)N[C@H](Cc1cccc(OC(F)(F)C(F)F)n1)[C@@H](O)c1ccc(F)cc1` (racemic) [Example 238, tert-butyl (1RS,2SR)-2-(4-fluorophenyl)-2-hydroxy-1-{[6-(1,1,2,2-tetrafluoroethoxy)pyridin-2-yl]methyl}ethylcarbamate], the melting point lay within 109 to 110 °C.

Compound `COC(=O)CCC(=O)O[C@H](c1ccc(F)cc1)[C@H](Cc1cccc(OC(F)(F)C(F)F)c1)NC(=O)c1cccc2c1C=CCCC2` (racemic) (as salt: succinate) [Example 383, (1RS,2SR)-2-[(6,7-dihydro-5H-benzo[a]cyclohepten-1-ylcarbonyl)amino]-1-(4-fluorophenyl)-3-[3-(1,1,2,2-tetrafluoroethoxy)phenyl]propyl methyl succinate] showed a melting point of 170 to 171 °C.

As to `O=C(N[C@H](Cc1ccc(C(F)F)cc1)[C@@H](O)c1ccc(F)cc1)c1ccc(F)c2ccccc12` (racemic) [Example 165, N-[(1RS,2SR)-1-[4-(difluoromethyl)benzyl]-2-(4-fluorophenyl)-2-hydroxyethyl]-4-fluoronaphthalene-1-carboxamide], the melting point fell in the range of 212 to 213 °C.

Compound `O=S(=O)(N[C@H](Cc1ccc(C(F)(F)F)cc1)[C@@H](O)c1ccc(F)cc1)c1cccc2ccccc12` (racemic) [Example 117, N-((1RS,2SR)-2-(4-fluorophenyl)-2-hydroxy-1-((4-(trifluoromethyl)phenyl)methyl)ethyl)-1-naphthalenesulfonamide] displayed a melting point of 176 to 177 °C.

Take `O=C(N[C@H](Cc1cccc(OC(F)(F)C(F)F)c1)[C@@H](O)c1ccc(-c2ccccc2)cc1)c1cccc2c1C=CCCC2` (racemic) [Example 291, N-[(1RS,2SR)-2-(1,1′-biphenyl-4-yl)-2-hydroxy-1-[3-(1,1,2,2-tetrafluoroethoxy)benzyl]ethyl]-6,7-dihydro-5H-benzo[a]cycloheptene-1-carboxamide]: the melting point lay within 122 to 123 °C.

`O=C(N[C@H](Cc1cccc(OC(F)(F)C(F)F)c1)[C@@H](O)c1ccc(Oc2ccccn2)cc1)c1ccc(F)c2ccccc12` (racemic) [Example 259, 4-fluoro-N-{(1RS,2SR)-2-hydroxy-2-[4-(pyridin-2-yloxy)phenyl]-1-[3-(1,1,2,2-tetrafluoroethoxy)benzyl]ethyl}-1-naphthamide] came in with a melting point of 176 to 177 °C.

Regarding `CC(C)(C)OC(=O)N[C@H](Cc1cccc(OC(F)(F)C(F)F)c1)[C@@H](O)c1ccc(Cl)nc1` (racemic) [Example 328, tert-butyl N-[(1RS,2SR)-2-(6-chloropyridin-3-yl)-2-hydroxy-1-[3-(1,1,2,2-tetrafluoroethoxy)benzyl]ethyl]carbamate], the melting point was 119 to 121 °C.

Compound `COc1ccc(C(=O)NC(Cc2ccc(C(F)(F)F)cc2)C(O)c2ccc(F)cc2)cc1` (racemic) [Example 7, N-[2-(4-fluorophenyl)-2-hydroxy-1-[[4-(trifluoromethyl)phenyl]methyl]ethyl]-4-methoxybenzamide] returned a melting point of 174 to 176 °C.

Compound `O=C(N[C@H](Cc1cccc(OC(F)(F)C(F)F)c1)[C@@H](O)c1ccc(OCC2CCCCC2)cc1)c1cccc2c1C=CCCC2` (racemic) [Example 246, N-{(1RS,2SR)-2-[4-(cyclohexylmethoxy)phenyl]-2-hydroxy-1-[3-(1,1,2,2-tetrafluoroethoxy)benzyl]ethyl}-6,7-dihydro-5H-benzo[a][7]annulene-1-carboxamide] yielded a melting point of 141 to 142 °C.

Compound `COc1ccc([C@H](O)[C@@H](Cc2ccc(C(F)(F)F)cc2)NC(=O)CCc2ccccc2)cc1` (racemic) [Example 193, N-((1RS,2SR)-2-hydroxy-2-(4-methoxyphenyl)-1-((4-(trifluoromethyl)phenyl)methyl)ethyl)-3-phenylpropanamide] showed a melting point of 116 to 117 °C.

In the case of `O=C(N[C@H](Cc1cccc(OC(F)(F)C(F)F)c1)[C@@H](O)c1ccc(-c2ccccc2CO)cc1)c1cccc2c1C=CCCC2` (racemic) [Example 302, N-[(1RS,2SR)-2-[2′-(hydroxymethyl)[1,1′-biphenyl]-4-yl]-2-hydroxy-1-[3-(1,1,2,2-tetrafluoroethoxy)benzyl]ethyl]-6,7-dihydro-5H-benzo[a]cycloheptene-1-carboxamide], the melting point fell in the range of 152 to 154 °C.

With `O=C(NC(Cc1ccc(C(F)(F)F)cc1)C(O)c1ccc(F)cc1)c1ccc(F)cc1` (racemic) [Example 6, 4-fluoro-N-[2-(4-fluorophenyl)-2-hydroxy-1-[[4-(trifluoromethyl)phenyl]methyl]ethyl]benzamide], the melting point was in the range of 155 to 179 °C.

As for `O=C(N[C@H](Cc1cccc(OC(F)(F)C(F)F)c1)[C@@H](O)c1ccc(OCc2ccc(F)cc2)cc1)c1cccc2c1C=CCCC2` (racemic) [Example 245, N-{(1RS,2SR)-2-{4-[(4-fluorobenzyl)oxy]phenyl}-2-hydroxy-1-[3-(1,1,2,2-tetrafluoroethoxy)benzyl]ethyl}-6,7-dihydro-5H-benzo[a][7]annulene-1-carboxamide], the melting point lay in the range of 144 to 145 °C.

Turning to `O=C(NC(Cc1ccc(C(F)(F)F)cc1)C(O)c1ccc(F)cc1)C1CCCC1` (racemic) [Example 5, N-[2-(4-fluorophenyl)-2-hydroxy-1-[[4-(trifluoromethyl)phenyl]methyl]ethyl]cyclopentanecarboxamide], the melting point was 139 to 155 °C.

Consider `CC(C)(C)COc1cccc(C[C@@H](NC(=O)c2cccc3c(Cl)cccc23)[C@@H](O)c2cccc(Cl)c2)c1` (racemic) [Example 367, N-[(1RS,2SR)-1-[3-(neopentyloxy)benzyl]-2-(3-chlorophenyl)-2-hydroxyethyl]-5-chloro-1-naphthamide], for which the melting point lay within 142 to 143 °C.

`CC(C)(C)OC(=O)NCC(=O)O[C@H](c1ccc(F)cc1)[C@H](Cc1cccc(OC(F)(F)C(F)F)c1)NC(=O)c1ccc(F)c2ccccc12` (racemic) [Example 390, N-(tert-butoxycarbonyl)glycine (1RS,2SR)-2-[(4-fluoro-1-naphthoyl)amino]-1-(4-fluorophenyl)-3-[3-(1,1,2,2-tetrafluoroethoxy)phenyl]propyl ester] yielded a melting point of 126 to 127 °C.

Regarding `O=C(N[C@H](Cc1ccccc1C(F)(F)F)[C@@H](O)c1ccc(F)cc1)c1ccc(F)c2ccccc12` (racemic) [Example 141, 4-fluoro-N-((1RS,2SR)-2-(4-fluorophenyl)-2-hydroxy-1-((2-(trifluoromethyl)phenyl)methyl)ethyl)-1-naphthalenecarboxamide], the melting point fell in the range of 200 to 201 °C.

Take `CC(C)(C)Cc1ccc(C[C@@H](NC(=O)c2cccc3c(Cl)cccc23)[C@@H](O)c2cccc(Cl)c2)cc1` (racemic) [Example 346, 5-chloro-N-[(1RS,2SR)-2-(3-chlorophenyl)-2-hydroxy-1-(4-neopentylbenzyl)ethyl]naphthalene-1-carboxamide]: the melting point is 168 to 169 °C.

In turn, `CC(C)(C)OC(=O)N[C@H](Cc1cccc(OC(F)(F)C(F)F)c1)[C@@H](O)c1cccc(F)n1` (racemic) [Example 221, 1,1-dimethylethyl(1RS,2RS)-2-(6-fluoropyridin-2-yl)-2-hydroxy-1-((3-(1,1,2,2-tetrafluoroethoxy)phenyl)methyl)ethylcarbamate] gave a melting point of 140 to 141 °C.
